Measured values from patent publication US4668684A, “Combination of flupirtin and anticholinergic acting spasmolytic” (priority 1985, dated 1987).
Structures can show the parent of a compound that is named as a salt. Where two headings read alike, the source gives them in different places.

Assays:
[1] = system: writhing syndrome (mouse); assay: Acetic acid test (Writhing test) on the mouse, analgetic effect; format: in vivo, NMRI-Mouse; conditions: alone; for Analgetic Effect in %: average of 10 mice; for ED50: Mus musculus, po, 0.5 h, read-out: ED50 after 30 minutes
[2] = system: guinea pig small intestine; assay: Spasmolytic effect on the guinea pig small intestine in situ (acetylcholine spasm); format: in vivo; conditions: for % Spasmolytic Effect / Spasmolytic activity (in words): alone; for % Spasmolytic Effect: negative value; for Spasmolytic activity (in words): intraduodenally
Procedure: A balloon catheter was introduced into the ileum of guinea pigs narcotized with urethane (1.8 g/kg subcutaneously) after tracheotomy (tying up a tracheal channel to make breathing easier) and the catheter filled with air. Rhythmic contractions were carried out by the intestine, the so-called […] (dependent upon filling), through which a pressure is exerted on the rubber balloon. The pressure […] changes were recorded on a linear recorder via a pressure recorder connected to the balloon catheter and a carrier frequency bridge (TF of Hellige Co.). On one there can be measured the spontaneous […], on the other the spasms released by superfusion of […] (acetylcholine iodide, barium chloride or carbachol). By previously giving the […] intravenously or intraduodenally the height of the spasms released is retarded and can be determined in percent spasmolysis compared to a starting value. There is given as spasmolytic effect or spasmolysis how great a percent of spasm is liberated by the spasmogen (e.g. acetylcholine iodide) compared to the value which originates from the spasmogen (on the same animal).

[3] = system: gastrointestinal passage (guinea pigs); assay: Carbon transport model (influence on the gastrointestinal passage); format: in vivo, guinea pig; conditions: alone; for ED50: peroral, linear regression; for Spasmolytic Effect, Retardation in %: negative value
Procedure: Relying on Komlus and Pet/o/ cz (and modifications) (1970) Arzneim Forsch. Volume 20, pages 1338-1357 guinea pigs received 30 minutes after being given the substance a 10% carbon suspension in demineralized water in a volume of 1 ml/animal dispensed with the stomach probe. 0.5 hours later the animals were killed and starting from the stomach there was measured on one animal the entire length of intestine, on the others the length of the stretch blackened by the carbon. The stretch changed by the carbon was calculated in percent of the entire length in order to compensate for the different intestinal lengths of the individual animals in the evaluation of the effect of the substance. The effect on the gastro-intestinal passage is given from the comparison between the control and the animals (average value) treated with the substances. Ascertaining the ED50 (dosage in mg/kg at which there is 50% retardation of the carbon transport) is by means of linear regression.
Retardation of carbon transport signifies spasmolytic effect. The greater this retardation the greater also is the spasmolytic effect.
*Calculation of the ED50 by means of linear regression

[4] = system: gall bladder of the mouse; assay: Gall bladder model on the mouse, spasmolytic effect; format: in vivo, NMRI-Mouse; conditions: alone; for ED50: Mus musculus, po, peroral, linear regression
Procedure: The experiment is carried out relying on the methods of […] and Toson, J. Pharmacol. Methods Volume 7, pages 193 et. seq. (1982). The principle of this method is the gravimetric measurement of the gall bladder of the mouse. The gall bladder was stimulated through dispensation of egg yolk for delivery of bile. This delivery was carried out through natural spasms of the gall bladder. By previously dispensing a spasmolytically acting test material these spasms of the gall bladder were retarded and therewith likewise the delivery of bile. Thus the heavier the gall bladder is after dispensing the egg yolk the less bile it has delivered. The weight of the gall bladder in this test therefore is a measure of the spasmolytic effect of a material. […] The control animals received Methocel in the corresponding amount. […] Because of the evaluation 2 control groups must be present. […] The egg yolk suspension consisted of 3 parts by weight egg yolk in 7 parts by weight NaCl 0.9%. For this reason control group No. 1 also received 1 ml NaCl 0.9%. […] The gall bladder was prepared and weighed. The evaluation was carried out according to the formula: [(A-B)/(C-B)]×100=% Activity […]

in vivo = conditions: mouse, po

CC[N+](C)(CC)CCOC(C)(c1ccccc1)C1CC2C=CC1C2.[Br-] (stereo not shown) [Ciclonium bromide]
Analgetic Effect in % ([1]; 0.01 mg/kg per os): 18.5% | Analgetic Effect in % ([1]; 0.1 mg/kg per os): 46.3% | Analgetic Effect in % ([1]; 0.5 mg/kg per os): 53.1% | ED50 after 30 minutes ([1]; per os, linear regression): 0.26 mg/kg

CCOC(=O)Nc1ccc(NCc2ccc(F)cc2)nc1N [Flupirtin (Maleate), 2-amino-3-carbethoxyamino-6-(4-fluoro-benzylamino)-pyridine]
Spasmolytic effect / ED50 (in words) ([2]; alone, 10.0, 30.0 and 50.0 mg/kg intraduodenally, 30 minutes after dispensation): no spasmolytic | ED50 ([1]; per os, linear regression): 44.7 mg/kg | Analgetic Effect in % ([1]; 20.0 mg/kg per os): 12.0% | Analgetic Effect in % ([1]; 40.0 mg/kg per os): 54.0% | Analgetic Effect in % ([1]; 80.0 mg/kg per os): 70.0%

CCCC[N+]1(C)C2CC(OC(=O)C(CO)c3ccccc3)CC1C1OC12 (stereo not shown) [Butylscopolammonium bromide, butylscopolammonium bromide]
% Spasmolytic Effect ([2]; 50.0 mg/kg intraduodenally, 30 minutes after dispensation): -13.1% | % Spasmolytic Effect ([2]; 100.0 mg/kg intraduodenally, 30 minutes after dispensation): -37.9% | % Spasmolytic Effect ([2]; 200.0 mg/kg intraduodenally, 30 minutes after dispensation): -35.0% | Spasmolytic activity (in words) [2]: no dosage dependent spasmolytic activity | ED50 ([3]; Cavia porcellus, po, read-out: ED50): 132 mg/kg | Spasmolytic Effect, Retardation in % ([3]; 30.0 mg/kg peroral): -8.16% | Spasmolytic Effect, Retardation in % ([3]; 100.0 mg/kg peroral): -58.39% | Spasmolytic Effect, Retardation in % ([3]; 300.0 mg/kg peroral): -61.62% | ED50 ([1]; per os, linear regression): 1.5 mg/kg | Analgetic Effect in % ([1]; 0.5 mg/kg per os): 22.4% | Analgetic Effect in % ([1]; 1.0 mg/kg per os): 48.4% | Analgetic Effect in % ([1]; 2.0 mg/kg per os): 64.6% | Analgetic Effect in % ([1]; 4.0 mg/kg per os): 59.0% | ED50 [4]: 117 mg/kg | Spasmolytic Effect in % ([4]; 3.0 mg/kg peroral): 4.6% | Spasmolytic Effect in % ([4]; 10.0 mg/kg peroral): 19.1% | Spasmolytic Effect in % ([4]; 30.0 mg/kg peroral): 20.7% | Spasmolytic Effect in % ([4]; 100.0 mg/kg peroral): 35.9% | Spasmolytic Effect in % ([4]; 300.0 mg/kg peroral): 76.6%

CCOC(=O)Nc1ccc(NCc2ccc(F)cc2)nc1N [Flupirtin, 2-amino-3-carbethoxyamino-6-(4-fluoro-benzylamino)-pyridine]
Spasmolytic activity (in words) [2]: no spasmolytic activity | ED50 [3]: cannot be calculated | LD50 (in vivo): 552 mg/kg

CCOC(=O)Nc1ccc(NCc2ccc(F)cc2)nc1N [Flupirtin (Gluconate), 2-amino-3-carbethoxyamino-6-(4-fluoro-benzylamino)-pyridine]
Analgetic Effect in % ([1]; 0.56 mg/kg per os): 19.2% | Analgetic Effect in % ([1]; 1.12 mg/kg per os): 28.0% | Analgetic Effect in % ([1]; 2.24 mg/kg per os): 37.6% | Analgetic Effect in % ([1]; 4.47 mg/kg per os): 46.4% | Analgetic Effect in % ([1]; 8.93 mg/kg per os): 38.4% | Analgetic Effect in % ([1]; 17.85 mg/kg per os): 22.4% | Analgetic Effect in % ([1]; 35.7 mg/kg per os): 61.6%

CCOC(=O)Nc1ccc(NCc2ccc(F)cc2)nc1N [Flupirtin (HCl), 2-amino-3-carbethoxyamino-6-(4-fluoro-benzylamino)-pyridine]
Spasmolytic Effect, Retardation in % ([3]; 20.0 mg/kg peroral): -11.73% | Spasmolytic Effect, Retardation in % ([3]; 40.0 mg/kg peroral): -21.55% | Spasmolytic Effect, Retardation in % ([3]; 80.0 mg/kg peroral): -18.70% | ED50 [3]: not dosage depen- | ED50 [4]: 2.4 mg/kg | Spasmolytic Effect in % ([4]; 1.0 mg/kg peroral): 30.06% | Spasmolytic Effect in % ([4]; 3.0 mg/kg peroral): 64.36% | Spasmolytic Effect in % ([4]; 10.0 mg/kg peroral): 69.25%
